From patent publication US20210015752A1, “METHODS FOR PRODUCING PARTICLES OF AN ACTIVE INGREDIENT” (Savior Lifetec Corporation, priority 2017, published 2021)
Blank lines part the entries; values can stand above or below the compound they belong to.

How the values were obtained:
Format in all cases: physicochemical
[1] = Emulsion test of L-ascorbic acid in various types of solvents; details: stirred 3 hr
Source text: Two combinations of solvents gave emulsified solutions, there were tetrahydrofuran/heptanes and methanol/water

[2] = Solubility test of paliperidone palmitate in various types of solvents; details: ratio 1/15 (v/w), 30° C., stirred about 0.5 hour
Protocol: The solubility of paliperidone palmitate in various types of solvents was evaluated. To this purpose, paliperidone palmitate and the designated solvent were mixed in a ratio of 1/15 (v/w) at 30° C. and the mixture was stirred for about 0.5 hour.

[3] = Emulsion test of paliperidone palmitate in various types of solvents; details: stirred 3 hr
Protocol: Paliperidone palmitate was dissolved in DCM, THF, or toluene at 30° C. and stirred for about 0.5 hour to form a first solution, then a second solvent (as indicated in Table 2) was added and stirred for 3 hr. As the data in Table 2 indicated, among the 36 combinations (i.e., the combination of one of the 3 first solutions and one of the second solvents), only three combinations gave satisfied emulsified solutions, which comprised particles of paliperidone palmitate. The 3 combinations were THF/water, toluene/heptanes, and toluene/hexane, respectively.

Emulsion test result of the first solution containing L-ascorbic acid with the second solvent ([1]; first solvent methanol, second solvent water): emulsified | Emulsion test result of the first solution containing L-ascorbic acid with the second solvent ([1]; first solvent tetrahydrofuran, second solvent heptanes): emulsified
Structure (SMILES): O=C1O[C@H]([C@@H](O)CO)C(O)=C1O [L-ascorbic acid]

Solubility of paliperidone palmitate ([2]; solvent ACN): insoluble | Solubility of paliperidone palmitate ([2]; solvent Acetone): insoluble | Solubility of paliperidone palmitate ([2]; solvent DCM): soluble | Solubility of paliperidone palmitate ([2]; solvent EtOAc): insoluble | Solubility of paliperidone palmitate ([2]; solvent EtOH): insoluble | Solubility of paliperidone palmitate ([2]; solvent Heptanes): insoluble | Solubility of paliperidone palmitate ([2]; solvent Hexane): insoluble | Solubility of paliperidone palmitate ([2]; solvent IPA): insoluble | Solubility of paliperidone palmitate ([2]; solvent MTBE): insoluble | Solubility of paliperidone palmitate ([2]; solvent THF): soluble | Solubility of paliperidone palmitate ([2]; solvent Toluene): soluble | Solubility of paliperidone palmitate ([2]; solvent Water): insoluble | Solubility of the second solvent in the first solution containing paliperidone palmitate ([3]; first solvent DCM, second solvent ACN): miscible | Solubility of the second solvent in the first solution containing paliperidone palmitate ([3]; first solvent DCM, second solvent Acetone): miscible | Solubility of the second solvent in the first solution containing paliperidone palmitate ([3]; first solvent DCM, second solvent EtOAc): miscible | Solubility of the second solvent in the first solution containing paliperidone palmitate ([3]; first solvent DCM, second solvent EtOH): miscible | Solubility of the second solvent in the first solution containing paliperidone palmitate ([3]; first solvent DCM, second solvent Heptanes): miscible | Solubility of the second solvent in the first solution containing paliperidone palmitate ([3]; first solvent DCM, second solvent Hexane): miscible | Solubility of the second solvent in the first solution containing paliperidone palmitate ([3]; first solvent DCM, second solvent IPA): miscible | Solubility of the second solvent in the first solution containing paliperidone palmitate ([3]; first solvent DCM, second solvent MTBE): miscible | Solubility of the second solvent in the first solution containing paliperidone palmitate ([3]; first solvent DCM, second solvent THF): miscible | Solubility of the second solvent in the first solution containing paliperidone palmitate ([3]; first solvent DCM, second solvent Toluene): miscible | Solubility of the second solvent in the first solution containing paliperidone palmitate ([3]; first solvent DCM, second solvent Water): layered | Solubility of the second solvent in the first solution containing paliperidone palmitate ([3]; first solvent THF, second solvent ACN): miscible | Solubility of the second solvent in the first solution containing paliperidone palmitate ([3]; first solvent THF, second solvent Acetone): miscible | Solubility of the second solvent in the first solution containing paliperidone palmitate ([3]; first solvent THF, second solvent DCM): miscible | Solubility of the second solvent in the first solution containing paliperidone palmitate ([3]; first solvent THF, second solvent EtOAc): miscible | Solubility of the second solvent in the first solution containing paliperidone palmitate ([3]; first solvent THF, second solvent EtOH): miscible | Solubility of the second solvent in the first solution containing paliperidone palmitate ([3]; first solvent THF, second solvent Heptanes): miscible | Solubility of the second solvent in the first solution containing paliperidone palmitate ([3]; first solvent THF, second solvent Hexane): miscible | Solubility of the second solvent in the first solution containing paliperidone palmitate ([3]; first solvent THF, second solvent IPA): miscible | Solubility of the second solvent in the first solution containing paliperidone palmitate ([3]; first solvent THF, second solvent MTBE): miscible | Solubility of the second solvent in the first solution containing paliperidone palmitate ([3]; first solvent THF, second solvent Toluene): miscible | Solubility of the second solvent in the first solution containing paliperidone palmitate ([3]; first solvent THF, second solvent Water): emulsified | Solubility of the second solvent in the first solution containing paliperidone palmitate ([3]; first solvent Toluene, second solvent ACN): miscible | Solubility of the second solvent in the first solution containing paliperidone palmitate ([3]; first solvent Toluene, second solvent Acetone): miscible | Solubility of the second solvent in the first solution containing paliperidone palmitate ([3]; first solvent Toluene, second solvent DCM): miscible | Solubility of the second solvent in the first solution containing paliperidone palmitate ([3]; first solvent Toluene, second solvent EtOAc): miscible | Solubility of the second solvent in the first solution containing paliperidone palmitate ([3]; first solvent Toluene, second solvent EtOH): miscible | Solubility of the second solvent in the first solution containing paliperidone palmitate ([3]; first solvent Toluene, second solvent Heptanes): emulsified | Solubility of the second solvent in the first solution containing paliperidone palmitate ([3]; first solvent Toluene, second solvent Hexane): emulsified | Solubility of the second solvent in the first solution containing paliperidone palmitate ([3]; first solvent Toluene, second solvent IPA): miscible | Solubility of the second solvent in the first solution containing paliperidone palmitate ([3]; first solvent Toluene, second solvent MTBE): miscible | Solubility of the second solvent in the first solution containing paliperidone palmitate ([3]; first solvent Toluene, second solvent THF): miscible | Solubility of the second solvent in the first solution containing paliperidone palmitate ([3]; first solvent Toluene, second solvent Water): layered
Structure (SMILES): CCCCCCCCCCCCCCCC(=O)OC1CCCn2c1nc(C)c(CCN1CCC(c3noc4cc(F)ccc34)CC1)c2=O (centres unmarked) [paliperidone palmitate]
